# Where a SMILES comes first, the peptide text is derived from it. The star is where a group is joined. Galloyl = O=C(c1cc(O)c(O)c(O)c1)*
# How the values were obtained:
# [1] = system: HCV JFH1 3' UTR dsRNA; experiment: dsRNA intercalation assay (agarose gel); type: binding, hepatitis C virus; conditions: peptide 20 μM; 45 min; 1% agarose gel
# From the text: scans, with a resolution of 0.2 nm. To investigate the conformational changes by the membrane environments, the data were obtained in vesicles containing POPC:POPS (9:1), and POPC:Cholesterol (9:1). CD spectra were typically recorded as an average of the eight scans that were obtained in millidegrees and converted to molar ellipticity [θ] in deg·cm2·dmol-1. The peptide concentration was 10 μmol·L-1, and the proportion of lipid/peptide was 100 (L/P = 100).
# Effect of peptides on dsRNA intercalation assay
# To assess GA-Hecate’s dsRNA intercalation capacity, we performed an assay adapted from Krawczyk et al. 2009. Initially, a PCR reaction was made and the HCV JFH1 3’ untranslated region (UTR) (accession no. AB047639) was amplified by specific primers flanked by a T7 promoter sequence (F
# 273 bp, was purified using a ZymocleanTM Gel DNA recovery Kit (Zymo Research) and used as a template for in vitro dsRNA production using a T7 Ribomax Express kit (Promega). […] GA-Hecate, Hecate and Lys-Hecate (20 μM) were incubated with […] of dsRNA, for 45 min, and subsequently analysed in 1% agarose gel 1X TAE stained with ethidium bromide. […]
# In order to guarantee that the virus inhibition effect was not related exclusively to cell death trigger, all concentrations were evaluated to necrosis and apoptosis induction. […]
# [2] = system: J6/JFH-1-infected Huh-7.5 cells; experiment: Apoptosis analysis (active caspase-3 staining); type: cell-based, human; conditions: 1.25-40 μM; 48 and 72 h p.t.
# Procedure: Apoptosis and Necrosis analysis
# The ability of GA-Hecate inducing cell death by necrosis and apoptosis was assessed in 48 and 72h post-treatment (p.t) at concentrations: 1.25; 2.5; 5; 10; 20 and 40 μM. For necrosis evaluation, cells were stained using Propidium Iodide at […], which was incubated with the cells 15 minutes prior fixation. Subsequently, cells were fixed using paraformaldehyde 4% in PBS (PFA 4%) for 15 minutes and nuclei stained using DAPI 1 μg/mL for 5 minutes. For apoptosis evaluation, cells were fixed using PFA 4% during 15 minutes, permeabilized using Triton X- 100 (Sigma) 0.1% in PBS and stained using anti-Active Caspase 3 antibody (host: Rabbit) (1:200 in BSA 1% in PBS) (Abcam 13847) for 2h. Then cells were rinsed using PBS and stained using anti-rabbit AlexaFluor 594 (1:500 in BSA 1% PBS) (Thermo Scientific A21207) during 2h. Nuclei were stained using DAPI for 5 minutes. For both assays, cells were counted in 5 randomly chosen fields in duplicate. […]
# Figure S2. Cell death mechanisms triggered by GA-Hecate 48h post-treatment in J6/JFH-1- infected Huh-7.5 cells. A) Apoptosis activation triggered by GA-Hecate was measured by Active Caspase-3 in treated cells. Caspase is artificially represented in green and nuclei were stained using DAPI 1µg/mL (blue). B) Necrosis assessment. […]
# [3] = system: HCVcc FL-J6/JFH-50C19Rluc2AUbi (genotype 2a); experiment: HCVcc replication (full-length replicon, Renilla luciferase / protein); type: cell-based, hepatitis C virus; conditions: 20 μM; 48 h; viral RNA (luciferase) and protein levels
# From the text: Figure 4 GA-Hecate effect on HCVcc replication. (A) HCV RNA expression measured by the Renilla luciferase reporter gene. (B) HCV non-structural (NS5A) protein expression. GAPDH was used as an endogenous control. Water was used as a negative control of virus replication inhibition (Control (−)), and cyclosporine A was used as a positive control of virus replication inhibition (Control (+)). Bars represent triplicate samples of three independent assays. RLU - Relative light units. ***P < 0.001 vs Control (−); F = 273.2, df (between columns) = 5.
# Cell lines harboring subgenomic or genomic replicons were seeded at 5 × 10^3 cells /well on 96-well plates and the compounds were added 24 h post-seeding, in a concentration range between 2.5–20 μM. […] Luciferase activity was measured using a luminometer (FLUOstar Omega/BMG LABTECH, Offenburg, BW, DE). […]
# HCV (FL J6/JFH) infected cells were used to evaluate virus protein expression after peptide treatment. […] Total protein was quantified using a BCA assay (Thermo-Scientific) following the manufacturer’s instructions. […] Finally, the membrane was incubated for 1 minute with Pierce ECL Western Blotting Substrate (Thermo-Scientific-Pierce, Rockford, IL, USA), and the luminescence intensity was captured on a Chemi-Doc System (Bio-Rad, Amadora, PT). […]
compound,measurement,setting,value
CC(C)C[C@H](NC(=O)[C@H](C)NC(=O)[C@H](CCCCN)NC(=O)[C@H](CCCCN)NC(=O)[C@H](CC(C)C)NC(=O)[C@H](C)NC(=O)[C@H](CCCCN)NC(=O)[C@H](CCCCN)NC(=O)[C@H](CC(C)C)NC(=O)[C@H](CCCCN)NC(=O)[C@H](CCCCN)NC(=O)[C@H](CC(C)C)NC(=O)[C@H](C)NC(=O)[C@H](CCCCN)NC(=O)[C@H](CCCCN)NC(=O)[C@H](CC(C)C)NC(=O)[C@H](C)NC(=O)[C@H](CCCCN)NC(=O)[C@H](CC(C)C)NC(=O)[C@H](C)NC(=O)[C@H](CC(C)C)NC(=O)[C@H](C)NC(=O)[C@H](Cc1ccccc1)NC(=O)c1cc(O)c(O)c(O)c1)C(N)=O [GA-Hecate] (Galloyl-FALALKALKKALKKLKKALKKAL-NH2),intercalation in HCV dsRNA,[1],able to intercalate in HCV dsRNA
same,apoptosis induction (active caspase-3),[2],no significate apoptosis induction in any tested time point or concentration
same,inhibition of HCVcc replication,[3],approximately 85%

# Reference: article PMC6156508, “GA-Hecate antiviral properties on HCV whole cycle represent a new antiviral class and open the door for the development of broad spectrum antivirals” (Scientific Reports, 2018)
